One molecule from patent US9375406B2, “Substituted pyrimidines for mobilizing cells expressing a type 4 CXC chemokine receptor” (TaiGen Biotechnology Co., Ltd., priority 2014, dated 2016) can be followed below.

The assay deals with T acute lymphoblastic leukemia (T-ALL) cells.

Structures are written as SMILES.

Procedure: Mononuclear human leukemia cells were prepared using Ficoll gradient centrifugation and cryopreserved in liquid nitrogen. The frozen cells were thawed quickly and washed with PBS to remove the cryopreservation reagent. NOD/SCID mice (Institute of Cellular and Organismic Biology, Academia Sinica) were preconditioned with 200 centigray of total body irradiation at 6-8 weeks of age. The leukemia cells were then transplanted to the preconditioned NOD/SCID mice via tail vein. The resulting leukemia blast cells, i.e., T acute lymphoblastic leukemia (T-ALL) cells and acute myelogenous leukemia (AML) cells, were recovered from spleen and used in experiments as described below.
Mice were monitored for leukemia cell engraftment and dissemination by the appearance of human CD45^+ cells in mouse peripheral blood, which were sampled weekly after the 3rd week of cell transplantation. Peripheral blood samples were taken from the tail vein and red blood cells were lysed in ammonium chloride and resuspensed in Phosphate buffered saline (PBS) plus 2% Fetal Bovine Serum (FBS) before cell staining. […] After immunostaining, cells were washed, suspended in PBS plus 2% FBS, and analyzed using FACS Calibur (BD Biosciences). […]

Consider `CC[C@]1(O)C[C@H]2CN(CCc3c([nH]c4ccccc34)[C@@](C(=O)OC)(c3cc4c(cc3OC)N(C=O)[C@H]3[C@@](O)(C(=O)OC)[C@H](OC(C)=O)[C@]5(CC)C=CCN6CC[C@]43[C@@H]65)C2)C1` [vincristine], for which, under “vincristine (0.5 mg/kg ip) alone, days 14, 21, 28”, the average survival time was 73.6 ± 7.1 days. Also, the “time until which CD45+ cells in the peripheral blood were not detected” value (vincristine (0.5 mg/kg) alone) turned out to be 8 weeks.
